Measurements as given in PubChem BioAssay AID1421 (Emory University Molecular Libraries Screening Center, 2008).
Activity calls are given as the source filed them. The rule behind the calls is not given here.

Target: Prostaglandin E2 receptor EP2 subtype (Homo sapiens) (UniProt P43116)
Assay: EP2 receptor modulators, dose response, cell-based, human EP2, PGE2 EC50 shift (AID 1421)
Conditions: EP2-expressing cells, PGE2 EC50 shift by compound

Sequence of Prostaglandin E2 receptor EP2 subtype (Homo sapiens) (P43116 whole entry, looked up): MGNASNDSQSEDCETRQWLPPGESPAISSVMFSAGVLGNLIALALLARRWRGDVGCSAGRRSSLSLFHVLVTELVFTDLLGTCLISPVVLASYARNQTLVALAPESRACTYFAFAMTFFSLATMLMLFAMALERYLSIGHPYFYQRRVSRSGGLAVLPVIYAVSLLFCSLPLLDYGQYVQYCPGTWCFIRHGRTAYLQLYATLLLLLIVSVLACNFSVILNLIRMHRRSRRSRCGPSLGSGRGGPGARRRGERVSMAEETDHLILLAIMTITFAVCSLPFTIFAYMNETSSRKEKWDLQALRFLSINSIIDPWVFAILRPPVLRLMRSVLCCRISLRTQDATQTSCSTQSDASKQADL

Row | outcome | Structure (SMILES)
1 | active | CCc1ccc(NC(=S)N(Cc2ccccc2)Cc2ccccn2)cc1
2 | active | CCCc1cc(C(=O)OC)c(NC(=O)c2cc(C)on2)s1
3 | active | CCOC(=O)c1c(C)[nH]c(C=O)c1Cc1cccc(Cl)c1
4 | active | Cc1ccc(CSc2ncnc3c2cnn3Cc2ccccc2)cc1C
5 | active | COc1cc(-c2nc(-c3cccc(C(F)(F)F)c3)no2)cc(OC)c1OC
6 | active | CSc1ncc2c(n1)-c1cc(C)ccc1SC2
7 | active | Cc1ccccc1C(=O)Nc1ccccc1N1CCCCC1
8 | active | Cc1cc(C#N)c(SCC(N)=O)nc1-c1ccc(F)cc1
9 | active | CC12CCC(C(=O)N(CSC(=S)N/N=C\c3ccccc3Cl)C1=O)C2(C)C (configuration not stated)

Same assay, conditions: EP2-expressing cells, PGE2 EC50 shift by compound; measured here: PGE2 EC50 at 6.7 uM compound

Row | PGE2 EC50 with compound [nM] | Structure (SMILES)
10 | 0.9 | CC(C)c1ccc2c(c1)CCC1C(C)(C(N)=O)CCCC21C (configuration not stated)
11 | 0.8 | Cc1cc2cc3c(cc2nc1SCC(=O)OC(C)C)OCO3
12 | 2.37 | Cc1oc(-c2ccccc2)cc1C(=O)Nc1cccc(/C=C/C(=O)O)c1
13 | 0.7 | COC(=O)c1cc(-c2ccc3c(c2)OCO3)nc2ccccc12
14 | 0.72 | S=c1[nH]nc(CSc2nc3ccccc3s2)n1Cc1ccccc1
15 | 2.63 | COC(=O)c1ccc(-c2ccco2)n1Cc1cccc(C)c1
16 | 2.86 | N#Cc1c(-c2ccco2)nc(SCc2ccc(F)cc2)[nH]c1=O
17 | 2.7 | CCc1ccc(NC(=S)N(Cc2ccccc2)Cc2ccccn2)cc1
18 | 1.11 | OCCCNc1nc(-c2ccc(Cl)cc2)nnc1-c1ccc(Br)cc1
19 | 0.74 | O=c1[nH]c(N/N=C/c2ccccc2)nc2ccccc12
20 | 2.08 | O=S1(=O)N=C(N(CCO)/N=C/C=C/c2ccccc2)c2ccccc21
21 | 1.64 | COc1cc(/C=C/c2ccc3cccc([N+](=O)[O-])c3n2)ccc1OCC(=O)O
22 | 1.38 | CCC(Sc1nc(-c2ccccc2)c(C#N)c(=O)[nH]1)C(=O)Nc1cc(C)on1 (configuration not stated)
23 | 0.97 | CC[C@H](C)C(=O)O[C@H]1C[C@@H](C)C=C2C=C[C@H](C)[C@H](CC[C@@H]3C[C@@H](O)CC(=O)O3)[C@H]21
24 | 2.7 | COc1ccc(C(=O)N2N=C(c3ccccc3)CC2(O)C(F)(F)F)cc1 (configuration not stated)
25 | 1.4 | Cc1cc2ccccc2nc1SCC(=O)NC1CCCC1
26 | 0.82 | COc1ccccc1CNC(=O)C1(c2ccc(Cl)cc2)CC1
27 | 2.6 | Cc1cc(N)c2cc(NC(=O)Nc3ccc4nc(C)cc(N)c4c3)ccc2n1
28 | 1.41 | CCOc1cccc(CNc2ccc(O)cc2)c1OCc1ccc(Cl)cc1
29 | 1.29 | O=C1/C(=C/c2cccnc2)SC(=NCc2ccccc2)N1Cc1ccccc1
30 | 3.13 | CC(C)c1ccc(OCC(=O)NC(=S)Nc2ccc3c4c(cccc24)CC3)cc1
31 | 2.6 | Cc1ccc(C(C)C)c(OCCn2c(=O)oc3ccccc32)c1
32 | 0.7 | CCCc1cc(C(=O)OC)c(NC(=O)c2cc(C)on2)s1
33 | 0.69 | c1ccc(-c2cc(-c3ccncc3)nc3ccc4ccccc4c23)cc1
34 | 1.05 | CC1CCN(c2nc3c(c(=O)[nH]c(=O)n3C)n2CCCc2ccccc2)CC1
35 | 1.15 | COc1ccc(-c2nnc(N3CCC(C)CC3)c3ccccc23)cc1

Row | PGE2 EC50 with compound [nM] | Structure (SMILES)
36 | 2.58 | c1ccc(C2=Nc3ccccc3NC(c3ccccc3)C2)cc1 (configuration not stated)
37 | 1.02 | COc1ccc(-c2noc(-c3ccccc3C(=O)Nc3cccnc3)n2)cc1
38 | 1.33 | N#Cc1sc2nc(N3CCCCC3)c3c(c2c1N)CCCC3
39 | 1.31 | COc1ccc(/C=C(\C#N)C(N)=O)cc1OC
40 | 1 | COc1ccc(Cn2c(-c3ccc(OC)cc3)nc3ccccc32)cc1
41 | 0.98 | CCOC(=O)c1c(C)[nH]c(C=O)c1Cc1cccc(Cl)c1
42 | 0.78 | Cc1nc(NC(C)c2ccccc2)c2c3c(sc2n1)CCC3 (configuration not stated)
43 | 0.91 | c1cncc(-c2nc(N3CCCCCC3)c3ccccc3n2)c1
44 | 1.37 | CCOC(=O)c1sc(NC(=O)CN2C(=O)c3cccc4cccc(c34)C2=O)nc1C
45 | 0.87 | CCOC(=O)c1c(NC(=O)Cc2cccs2)sc(C)c1C
46 | 1.36 | COCC(=O)N(C)c1nnc(-c2cnc(C)cn2)s1
47 | 0.62 | C=CCn1c(SCc2c(C)noc2C)nc2sc(C)c(C)c2c1=O
48 | 1.01 | O=c1n(Cc2ccccc2F)c2ccccc2n1Cc1ccccc1F
49 | 0.95 | O=C(Cc1ccccc1)Nc1ccccc1N1CCN(c2ccccc2)CC1
50 | 1.25 | CC(NC(c1ccccc1)c1ccccc1)C(=O)N1CCCc2ccccc21 (configuration not stated)
51 | 1.05 | CN(Cc1ccccc1)c1nc2c(c(=O)[nH]c(=O)n2C)n1Cc1ccccc1Cl
52 | 1.24 | CCC1Oc2ccc(C)cc2N(Cc2cccc(C)c2)C1=O (configuration not stated)
53 | 1.08 | Cc1ccc(CSc2ncnc3c2cnn3Cc2ccccc2)cc1C
54 | 2.65 | CC(C)n1c2ccccc2c2nnc(SCC(=O)Nc3ccccc3C(=O)O)nc21
55 | 0.89 | COc1cc(-c2nc(-c3cccc(C(F)(F)F)c3)no2)cc(OC)c1OC
56 | 1.15 | CCOC(=O)C1CCCN(c2c(C(=O)c3ccccc3)cnc3ccc(OC)cc23)C1 (configuration not stated)
57 | 0.74 | O=C(CSCc1cccc(Cl)c1)Nc1ccccc1-c1ccccc1
58 | 2.7 | O=S(=O)(C=C(c1ccccc1)c1ccccc1)c1ccccc1
59 | 0.33 | COC(=O)c1sc2nc(-c3ccccc3)c3c(c2c1N)CCCC3
60 | 1.22 | CCc1c(-c2n[nH]c(=S)n2Cc2ccccc2)csc1C
61 | 1.15 | CC(C)c1cc(=O)oc2c3c4c(cc12)CCCN4CCC3

Row | PGE2 EC50 with compound [nM] | Structure (SMILES)
62 | 0.93 | CSc1ncc2c(n1)-c1cc(C)ccc1SC2
63 | 2.57 | Cn1c(=O)c2c(SCc3cccnc3)nc(CC(C)(C)C)nc2n(C)c1=O
64 | 1.09 | N#CCSc1nc2ccccc2c(=O)n1C1CCCCC1
65 | 0.87 | O=C(Nc1cc(S(=O)(=O)Nc2ccc(Cl)cc2)ccc1N1CCCCC1)c1ccc(F)cc1Cl
66 | 0.84 | CN=C1CC(SC)=C1c1ccc(C)cc1
67 | 2.63 | CCCCCOC(=O)c1[nH]c2c(c1C)C(=O)C(C(=O)OC)C(C)C2 (configuration not stated)
68 | 1.11 | CC1(C)C=Cc2c(c3c(c4c(=O)c(-c5ccc(O)cc5)coc24)OC(C)(C)CC3)O1
69 | 1.45 | C=CCn1c(-c2oc3nc(-c4ccccc4)cc(-c4ccccc4)c3c2N)n[nH]c1=S
70 | 0.94 | CC1=C[N+](=O)c2ccccc2[N+]1=O
71 | 0.85 | CCN1C(c2ccccc2)C(C)C(=O)C(C)C1c1ccccc1 (configuration not stated)
72 | 1.03 | Cc1cc(C)c2cc(C)c(SCC(=O)NCc3ccco3)nc2c1
73 | 0.31 | O=C1c2ccccc2OC2(C=Cc3ccccc3O2)N1Cc1ccccc1 (configuration not stated)
74 | 1.41 | Cc1ccccc1C(=O)Nc1ccccc1N1CCCCC1
75 | 0.71 | Cc1ccc(S(=O)(=O)c2c(C)nn(-c3ccccc3)c2OC(=O)c2ccco2)cc1
76 | 1.03 | C=C(C)COc1ccc2c(c1)CC[C@@H]1[C@H]3C/C(=N/O)C(=O)[C@]3(C)CC[C@@H]21
77 | 1.27 | CC1CCN(c2nc3c(c(=O)[nH]c(=O)n3C)n2CC(C)CSc2nnnn2-c2ccccc2)CC1 (configuration not stated)
78 | 0.72 | Cc1ccc(-c2nnn(CC(=O)N(Cc3cccs3)C(C(=O)NC3CCCC3)c3ccncc3)n2)cc1 (configuration not stated)
79 | 1.11 | CCOc1ccc(C(C)=O)cc1CC(C(N)=O)C(N)=O
80 | 1.12 | Cc1ccc(Oc2nc(-c3ccccc3)ncc2S(C)(=O)=O)cc1
81 | 1.37 | CCCOP(=O)(OCCC)C(Nc1cccc(C(F)(F)F)c1)c1ccc(C)cc1 (configuration not stated)
82 | 1.07 | COc1c2c(cc3occ(-c4ccc5c(c4)OCO5)c(=O)c13)OC(C)(C)C=C2
83 | 1.4 | CCc1ccc(OCc2n[nH]c(=S)n2C(C)CCCC(C)C)cc1 (configuration not stated)
84 | 1.4 | Cc1cc(C#N)c(SCC(N)=O)nc1-c1ccc(F)cc1
85 | 3.04 | CCOc1ccc(-n2nc3c(=S)[nH]nc(C)c3c2C)cc1
86 | 0.84 | O=c1c2ccccc2c(-c2ccccc2)nn1Cc1c(Cl)cccc1Cl
87 | 1.55 | CCc1ccc(Nc2oc(C)cc(=O)c2C(C)=O)cc1

Row | PGE2 EC50 with compound [nM] | Structure (SMILES)
88 | 1.7 | CC12CCC(C(=O)N(CSC(=S)N/N=C\c3ccccc3Cl)C1=O)C2(C)C (configuration not stated)
89 | 1.58 | CCc1ccccc1NC(=O)/C(=C/c1ccco1)c1ccccc1
90 | 1.34 | S=c1[nH]nc(-c2ccc(Br)o2)n1Cc1ccccc1
91 | 1.29 | CCOC(=O)c1cnc2c(c(C)nn2C)c1Oc1ccc(Cl)cc1
92 | 1.11 | O=C(c1ccco1)N(CCC(c1ccccc1)c1ccco1)Cc1ccc(F)cc1 (configuration not stated)
93 | 2.64 | CC1CC(C)CN(CC(=O)NC(c2ccccc2)c2ccccc2)C1 (configuration not stated)
94 | 0.87 | CSc1nc2nccc(-c3ccc(-c4ccccc4)cc3)n2n1
95 | 2.78 | Cc1cccc(-n2c(=S)[nH]c3c(oc4ccccc43)c2=O)c1
96 | 2.88 | CCOC(=O)c1c(N)nn(C(=O)c2ccccc2)c1-c1ccccc1
97 | 0.34 | COC(=O)c1ccc(Oc2cc(C)nc(NCc3ccccc3)n2)cc1
98 | 1.47 | Cc1nc2ccccn2c1C(=O)CSc1ccc(Cl)cc1Cl
99 | 0.85 | Cc1ccc(C(=O)OCC(=O)Nc2ccccc2Sc2ccccc2)cc1C
100 | 1.12 | CCOc1ccc(N(Cc2ccc(OC)cc2)C(=O)c2ccco2)cc1
101 | 0.76 | Cc1cc(O)c(C=O)c2c1C(=O)Oc1c(C)c(O)c3c(c1O2)C(O)OC3=O (configuration not stated)
102 | 0.96 | CCOP(=O)(OCC)c1nc(-c2cccc3ccccc23)oc1NCCc1ccc(OC)cc1
103 | 0.98 | COc1ccc2c(c1)C(C)=CC(C)(C)N2S(=O)(=O)c1ccc(Br)cc1
104 | 0.91 | Cc1ccc(-c2nn3c(C)nnc3s2)cc1NCc1c(F)cccc1Cl
105 | 0.8 | O=C(Nc1ccc2c(c1)OCO2)c1cccc2c1C(=O)N(C1CCCCC1)C2
106 | 1.41 | O=C(COc1ccccc1)Nc1ccccc1Oc1ccccc1
107 | 1.31 | CC(=C\c1ccccc1)/C=C1/SC(=S)N(C(C(=O)O)C(C)C)C1=O (configuration not stated)
108 | 1.35 | Oc1ccc2ccccc2c1Cc1c(O)ccc2ccccc12
109 | 0.86 | Cc1ccccc1-n1c(=O)[nH]c(=O)c2c(N)c(C(=O)c3ccc(Cl)cc3)sc21
110 | 0.79 | COC(=O)c1cc2occc2n1Cc1cccc(C)c1
111 | 1.02 | S=c1[nH]nc(C2CCCCC2)n1Cc1ccccc1
112 | 0.55 | CC(C)c1nc(SCc2c(F)cccc2Cl)c2c(=O)n(C)c(=O)n(C)c2n1
